Source: patent US6562874B1, “Compositions comprising combination of DEFI and modified DEFI and methods of making” (Unilever Home & Personal Care USA division of Conopco, Inc., priority 1999, dated 2003)

Assays:
zein protein = assay: Mildness (Zein solubilization), standard Zein assay; settings: Table 5; 1% aqueous solution, 1.5 g zein, one hour
Description: Mildness (Zein Solubilization)
This test is based on the correlation noted between the amount of zein solubilized by an aqueous surfactant solution and its irritancy; the more zein a surfactant dissolves, the greater its intrinsic irritation potential. The procedure is conducted gravimetrically: a 1% aqueous solution of surfactant mixture is added to 1.5 g of zein protein and this mixture is allowed to stir at a constant rate for one hour. This mixture is then centrifuged (for approximately 25 minutes at 4000 rpm) and the undissolved zein is isolated, rinsed and allowed to dry in a vacuum over at 60° C. to constant weight. The zein solubilized is determined by difference.

[1] = Foaming protocol for Examples 26-36, 250 mL graduated cylinder; assay type: physicochemical; settings: Table 5, 1 g in 20 mL water, 250 mL cylinder, shaken 60 seconds
Description: Protocol for Examples 26-36
One gram of final active mix is placed in a 250 mL glass-stoppered graduated cylinder and dispersed in 20 mL of distilled, de-ionized water; it is heated to 45° C. in a water bath until the temperature of the dispersion is at equilibrium. (note: For measurements done at 20° C., the water bath is set to 20° C. and the same procedure is followed). The sealed cylinder is then shaken vigorously for 60 seconds after which time the foam volume is measured in mL and recorded.

[2] = Foaming measurement protocol (Examples 1-25), 100 mL graduated cylinder; assay type: physicochemical; settings: 1 g active mix in 20 mL water, 45° C., shaken 60 seconds, 100 mL cylinder
Description: Foaming Measurement Protocol (Examples 1-25)
One gram of final active mix is placed in a 100 mL glass stoppered graduated cylinder and dispersed in 20 mL of distilled de-ionized water; it is heated to 45° C. in a water bath until the temperature of the dispersion is at equilibrium. The sealed cylinder is then shaken vigorously for 60 seconds after which time the foam volume is measured in mL and recorded.

Row | Substance | Zein (zein protein) | Foam at 20° C. ([1]; 20° C.) | Foam at 45° C. ([1]; 45° C.) | Foam Vol. ([2]; Table 1) | Foam Vol. ([2]; Table 2)
1 | Coco N-Methyl Taurate | 50.0% | 122 mL | 135 mL | – | –
2 | sodium lauroyl isethionate [SLI - Control] | – | – | – | 89.5 mL | 95 mL
